Data published in US20030022921A1, “Stable pharmaceutical formulation comprising torsemide modification II” (priority 2001, published 2003).
Blank lines part the entries; values can stand above or below the compound they belong to.

Assay: Polymorphic content by XRPD in bulk torsemide modification II on storage
Format: physicochemical
Parameters: key to Polymorphic form detected (I or II): “I” is Torsemide Modification I; “II” is Torsemide Modification II
Settings: for Polymorphic form detected (I or II) / Polymorph Content / Polymorph Content: amount of Torsemide Modification I: bulk
Text: 1. The present procedure is used for the detection and quantitative determination of the presence of torsemide modification I in tablets wherein the active ingredient is high purity torsemide modification II. The present procedure is also used for the detection and quantitative determination of torsemide modification I in bulk high purity torsemide modification II, which is to be used as the active ingredient in tablets. The present method is based on the unique x-ray powder diffraction pattern of torsemide modification I that is characterized by a strong peak at two-theta 5.7±0.2°, the presence of which indicates the presence of torsemide modification I in a sample of high purity torsemide modification II. 2.1 Instrument: Philips x-ray powder diffractometer. Goniometer model PW 1050/70, Cu-tube, curved graphite monochromator. 2.2 Sample holder: A standard aluminum sample holder with a rectangular cavity 20*15*0.3 mm inside it. Scanning range: 2θ=4° to at least 22° Step: 0.05° Step duration: 0.5 4.1 Gently grind a small amount of sample powder in an agate mortar with the pestle. 4.2 Fill the rectangular cavity on the sample holder with the powder.

[1] = first storage column (condition not given), 1 week
[2] = storage condition not given, 1 month
[3] = storage condition not given, 2 months
[4] = storage condition not given, 2 weeks

Polymorphic form detected (I or II) (storage 40° C., 75% RH, 1 month): II
Polymorphic form detected (I or II) (storage 40° C., 75% RH, 2 months): II
Polymorphic form detected (I or II) (storage 40° C., 75% RH, 2 weeks): II
Polymorphic form detected (I or II) (storage 40° C., 75% RH, 3 months): II
Polymorphic form detected (I or II) (storage 40° C., 75% RH, 4 months): II
Polymorphic form detected (I or II) (storage 55° C., 1 month): II
Polymorphic form detected (I or II) (storage 55° C., 1 week): II
Polymorphic form detected (I or II) (storage 55° C., 2 months): II
Polymorphic form detected (I or II) (storage 55° C., 2 weeks): II
Polymorphic form detected (I or II) (storage 55° C., 3 months): II
Polymorphic form detected (I or II) (storage 55° C., 4 months): II
SMILES: Cc1cccc(Nc2ccncc2S(=O)(=O)NC(=O)NC(C)C)c1 [Bulk Lot No. 851700100, 1-Isopropyl-3-[(4-m-toluidino-3-pyridyl)-sulfonyl]urea]
Rearrangement into different polymorphic forms of torsemide (storage at 40° C. at 75% relative humidity for 3 months, tablet formulations or bulk active ingredient): does not undergo any significant rearrangement
Polymorphic stability during storage under stress conditions (listed as high purity torsemide modification II): stable during storage under stress conditions for at least 3 months

Polymorph Content (first storage column (condition not given), 1 month): I + II
Polymorph Content [1]: II >> I
Polymorph Content: amount of Torsemide Modification I [1]: ~0.4%
Polymorph Content (first storage column (condition not given), 2 months): I + II
Polymorph Content (first storage column (condition not given), 2 weeks): I + II
Polymorph Content (first storage column (condition not given), 3 months): I > II
Polymorph Content (first storage column (condition not given), 4 months): I + II
Polymorph Content [2]: II >> I
Polymorph Content: amount of Torsemide Modification I [2]: ~1%
Polymorph Content [3]: II >> I
Polymorph Content: amount of Torsemide Modification I [3]: ~6%
Polymorph Content [4]: II >> I
Polymorph Content: amount of Torsemide Modification I [4]: ~0.5%
Polymorph Content (storage condition not given, 3 months): I + II
Polymorph Content (storage condition not given, 4 months): I + II
Polymorph Content (t = 0): II >>> I
Polymorph Content: amount of Torsemide Modification I (t = 0): < 0.3%
SMILES: Cc1cccc(Nc2ccncc2S(=O)(=O)NC(=O)NC(C)C)c1 [Bulk No. 851700200, 1-Isopropyl-3-[(4-m-toluidino-3-pyridyl)-sulfonyl]urea]
Polymorphic stability during storage under stress conditions (listed as torsemide modification II that contains trace amounts of torsemide modification): not stable during storage under stress condition for at least 3 months
